Converted amounts (≈) assume the structure as drawn. “Also recorded” adds a separate entry of the source. Each block holds one compound with its values, some of them ahead of it.
What was measured:
CCRF-CEM [1] = assay: Representative inhibition values against CCRF-CEM cell cultures; type: cell-based; conditions: Homo sapiens
CCRF-CEM [2] = assay: Reversal of cytotoxicity by added metabolites (hypoxanthine, AICA, thymidine, leucovorin); type: cell-based, human
[3] = system: Cem human lymphoblastic leukemia cells; assay: Inhibition of growth of Cem human lymphoblastic leukemia cells, 72 hours incubation, Coulter Counter particle count (Example 11); type: cell-based; conditions: for activity at 0.045 µg/mL: concentration 0.045 µg/ml; for activity at 0.137 µg/mL: concentration 0.137 µg/ml; for activity at 0.411 µg/mL: concentration 0.411 µg/ml; for activity at 1.23 µg/mL: concentration 1.23 µg/ml; for activity at 3.7 µg/mL: concentration 3.7 µg/ml; for activity at 11.1 µg/mL: concentration 11.1 µg/ml; for activity at 33.3 µg/mL: concentration 33.3 µg/ml; for activity at 100 µg/mL: concentration 100.0 µg/ml; for IC50: concentration inhibiting 50% of cellular growth, read-out: relative overall in vitro inhibitory concentration (IC50); for activity at 0.015 µg/mL: concentration 0.015 µg/ml
Experimental: Each of the compounds was dissolved in 100% dimethylsulfoxide. Dilutions of each compound were prepared to yield a range of test concentrations as hereinafter indicated.
Cem human lymphoblastic leukemia cells are grown in RPMI 1640 media (MABio), supplemented with 10% dialyzed fetal bovine serum (Gibco) at 37°C in humidified atmospheric conditions of 95% air and 5% CO₂. The cells are grown in static suspension (T-flask, Corning) maintained in log phase at a concentration of 3-7 x 10⁵ cells/ml.
(i) 10 µl of a test compound is placed in a well (Costar 24 well clusters). This step is repeated for each test concentration of the compounds. (ii) 500 µl of serum-free media is added to each well. (iii) A sterile bottle containing RPMI 1640 media supplemented with 10% dialyzed fetal bovine serum, 16 mM hepes and 8 mM mops buffers and 3 x 10⁴ cells/ml is placed on a magnetic stirrer. A Wheaton peristaltic pump is used to deliver 1.5 ml of this cell suspension to each well. The resulting final volume delivered to each well is 2.0 ml at a cellular concentration of […]. (iv) The cluster wells are incubated at 37°C in a humidified incubator (95% air, 5% CO₂) for 72 hours. (v) After the incubation period, measurements of each well are taken using the ZB1 Coulter Counter particle counter and the IC₅₀ (concentration inhibiting 50% of cellular growth) is determined. (vi) The results of this test are as follows: Table I

tumor cells = assay: In vivo antitumor activity in mice inoculated with tumor cells, eight daily i.p. doses; parameters: species or system strain DBA/2; conditions: for % Inhibition / Tumor Weight: eight daily doses; for Tumor Weight: mean ± standard deviation; for inhibitory effect on tumor growth in vivo: overall assessment in words
Experimental: Female mice, strain DBA/2, were inoculated with tumor cells. Treatment with the test compounds began the day following inoculation. The treatment consisted of eight daily doses i.p. (intraperitoneal) of either Compounds A and C for eight consecutive days. Tumor size was measured on the day following the last day of treatment to determine the inhibitory effect of the test compounds on tumor growth.

[4] = system: Cem human lymphoblastic leukemia cells; assay: Reversal studies to identify the point of enzymatic inhibition (Example 11); type: cell-based; conditions: from reversal with 100 µM hypoxanthine and/or 5 µM thymidine
Experimental: The mechanism of action of each compound was determined through further tests employing so-called "reversal" studies. These studies supplied compounds or precursors which, alone or together, identified the specific point of enzymatic inhibition. • (a) Hypoxanthine - Hypoxanthine will reverse the inhibitory effects of a compound if the compound functions as an inhibitor of purine de novo synthesis. The availability of hypoxanthine thus allows cells to bypass purine de novo synthesis. • (b) Thymidine - Thymidine alone will reverse the inhibitory effects of a compound if the compound functions as a specific inhibitor of thymidylate synthetase. • (c) Hypoxanthine and Thymidine - If a compound is determined in (a) to not be an inhibitor of purine de novo synthesis, and in (b) to not be an inhibitor of thymidilate synthetase, then a reversal study utilizing hypoxanthine and thymidine, in combination, will determine whether the compound can produce inhibition of both pathways. Thus if this combination reverses the inhibitory effects of a compound, the compound most likely functions as an inhibitor of dihydrofolate reductase (involved in both purine and pyrimidine biosynthesis).
In each case, the basic procedure outlined above was followed, modified in that 250 µl of the reversal compound [or of each reversal compound in […]] was added to the test wells, and the amount of serumless media added to each test well was decreased [or entirely eliminated in (b)] by the same amount. The reversal compounds were prepared as 8X stock solutions in phosphate buffered saline (sterile filtered through a 0.2 µ acrodisc filter - Gelman) so that 250 µl of the stock solution would yield a final concentration of 100 µM hypoxanthine and/or 5 µM thymidine.

[5] = Homo sapiens, CCRF-CEM, 72 hours, read-out: Cellular Growth (%)
[6] = Homo sapiens, CCRF-CEM, 72 hours
[7] = Table VI Run 1, dose 12.50 mg/kg i.p.
[8] = Table VI Run 1, dose 25.00 mg/kg i.p.
[9] = Table VI Run 1, dose 50.00 mg/kg i.p.
[10] = Table VI Run 1, dose 100.00 mg/kg i.p.
[11] = Table VI Run 1, dose 200.00 mg/kg i.p.
[12] = Table VI Run 2, dose 0.6256 mg/kg i.p.
[13] = Table VI Run 2, dose 1.25 mg/kg i.p.
[14] = Table VI Run 2, dose 5 mg/kg i.p.
[15] = Table VI Run 2, dose 10 mg/kg i.p.
[16] = Table VI Run 2, dose 20 mg/kg i.p.
[17] = Table VI Run 2, dose 40 mg/kg i.p.

SMILES: Nc1nc(O)c2c(CCc3cccc(F)c3)c[nH]c2n1
IC50 (CCRF-CEM [1]): > 20 µg/mL

SMILES: Nc1nc(O)c2c(CCc3ccc(C(=O)O)cc3)c[nH]c2n1
IC50 (CCRF-CEM [1]): > 20 µg/mL

SMILES: Nc1nc2[nH]cc(CCc3ccc(C(=O)N[C@@H](CCC(=O)O)C(=O)O)cc3)c2c(=O)[nH]1
IC50 (CCRF-CEM [1]): 0.004 µg/mL (≈ 0.00936 µM)
Cytotoxicity reversed by addition of aminoimidazolecarboxamide (AICA) (CCRF-CEM [2]; addition of aminoimidazolecarboxamide (AICA)): not reversed
Cytotoxicity reversed by addition of hypoxanthine (CCRF-CEM [2]; addition of hypoxanthine): not reversed
Cytotoxicity reversed by addition of thymidine (CCRF-CEM [2]; addition of thymidine): reversed

SMILES: COc1ccc(CCc2c[nH]c3nc(N)nc(O)c23)cc1 [3-[2-(4-methoxyphenyl)ethyl]-4-hydroxy-6-aminopyrrolo[2,3-d]pyrimidine]
IC50 (CCRF-CEM [1]): > 20 µg/mL

SMILES: Nc1nc(O)c2c(n1)NCC2CCc1ccc(C(=O)NC(CCC(=O)O)C(=O)O)cc1 (stereo not drawn) [Compound A, reference compound]
activity at 0.045 µg/mL [3, 5]: 100%
activity at 0.137 µg/mL [3, 5]: 63.9%
activity at 0.411 µg/mL [3, 5]: 21.5%
activity at 1.23 µg/mL [3, 5]: 16.1%
activity at 3.7 µg/mL [3, 5]: 15.3%
activity at 11.1 µg/mL [3, 5]: 16.2%
activity at 33.3 µg/mL [3, 5]: 15.5%
activity at 100 µg/mL [3, 5]: 13.1%
IC50 [3, 6]: 0.2 µg/mL (≈ 0.466 µM)
% Inhibition (tumor cells; Table V, dose 3.125 mg/kg i.p.): 0%
Tumor Weight (tumor cells; Table V, dose 3.125 mg/kg i.p.): 2825 ± 822 mg
% Inhibition (tumor cells; Table V, dose 6.25 mg/kg i.p.): 0%
Tumor Weight (tumor cells; Table V, dose 6.25 mg/kg i.p.): 2719 ± 413 mg
% Inhibition (tumor cells; Table V, dose 12.5 mg/kg i.p.): 0%
Tumor Weight (tumor cells; Table V, dose 12.5 mg/kg i.p.): 3360 ± 703 mg
% Inhibition (tumor cells; Table V, dose 25 mg/kg i.p.): 12%
Tumor Weight (tumor cells; Table V, dose 25 mg/kg i.p.): 2121 ± 410 mg
% Inhibition (tumor cells; Table V, dose 50 mg/kg i.p.): 19%
Tumor Weight (tumor cells; Table V, dose 50 mg/kg i.p.): 1935 ± 498 mg
% Inhibition (tumor cells; Table V, dose 100 mg/kg i.p.): 0%
Tumor Weight (tumor cells; Table V, dose 100 mg/kg i.p.): 3447 ± 747 mg
% Inhibition (tumor cells; Table V, dose 200 mg/kg i.p.): 0%
Tumor Weight (tumor cells; Table V, dose 200 mg/kg i.p.): 2525 ± 694 mg
inhibitory effect on tumor growth in vivo (tumor cells): essentially no inhibitory effect; also recorded: inactive
mechanism of action (point of enzymatic inhibition) [4]: appear to inhibit TS

SMILES: Nc1nc(O)c2c(CCCc3ccc(C(=O)NC(CCC(=O)O)C(=O)O)cc3)c[nH]c2n1 (stereo not drawn) [Compound B]
activity at 0.015 µg/mL [3, 5]: 76.9%
activity at 0.045 µg/mL [3, 5]: 33.5%
activity at 0.137 µg/mL [3, 5]: 17.7%
activity at 0.411 µg/mL [3, 5]: 13%
activity at 1.23 µg/mL [3, 5]: 11.3%
activity at 3.7 µg/mL [3, 5]: 10.4%
activity at 11.1 µg/mL [3, 5]: 9.6%
activity at 33.3 µg/mL [3, 5]: 10.8%
IC50 [3, 6]: 0.03 µg/mL (≈ 0.068 µM)
mechanism of action (point of enzymatic inhibition) [4]: inhibition of DHFR rather than TS

SMILES: Nc1nc(O)c2c(CCc3ccc(C(=O)NC(CCC(=O)O)C(=O)O)cc3)c[nH]c2n1 (stereo not drawn) [Compound C]
activity at 0.005 µg/mL ([3]; Homo sapiens, CCRF-CEM, concentration 0.005 µg/ml, 72 hours, read-out: Cellular Growth (%)): 96%
activity at 0.015 µg/mL [3, 5]: 25%
activity at 0.045 µg/mL [3, 5]: 14%
activity at 0.137 µg/mL [3, 5]: 14%
activity at 0.411 µg/mL [3, 5]: 13%
activity at 1.23 µg/mL [3, 5]: 14%
activity at 3.7 µg/mL [3, 5]: 13%
activity at 11.1 µg/mL [3, 5]: 12%
activity at 33.3 µg/mL [3, 5]: 12%
activity at 100 µg/mL [3, 5]: 14%
IC50 [3, 6]: 0.007 µg/mL (≈ 0.0164 µM)
more active in vitro than Compound A by a factor ([3]; in vitro, relative to Compound A): at least 25 fold
% Inhibition (tumor cells; [7]): 98%
Tumor Weight (tumor cells; [7]): 102 ± 166 mg
% Inhibition (tumor cells; [8]): 100%
Tumor Weight (tumor cells; [8]): 0 ± 0 mg
% Inhibition (tumor cells; [9]): 100%
Tumor Weight (tumor cells; [9]): 0 ± 0 mg
% Inhibition (tumor cells; [10]): 100%
Tumor Weight (tumor cells; [10]): 0 ± 0 mg
% Inhibition (tumor cells; [11]): 100%
Tumor Weight (tumor cells; [11]): 0 ± 0 mg
% Inhibition (tumor cells; [12]): 0%
Tumor Weight (tumor cells; [12]): 7381 ± 2397 mg
% Inhibition (tumor cells; [13]): 0%
Tumor Weight (tumor cells; [13]): 6682 ± 2300 mg
Tumor Weight (tumor cells; Table VI Run 2, dose 2.5 mg/kg i.p.): 2908 ± 1948 mg
% Inhibition (tumor cells; [14]): 83%
Tumor Weight (tumor cells; [14]): 1034 ± 657 mg
% Inhibition (tumor cells; [15]): 97%
Tumor Weight (tumor cells; [15]): 196 ± 152 mg
% Inhibition (tumor cells; [16]): 100%
Tumor Weight (tumor cells; [16]): 18 ± 57 mg
% Inhibition (tumor cells; [17]): 100%
Tumor Weight (tumor cells; [17]): 0 ± 0 mg
inhibitory effect on tumor growth in vivo (tumor cells): marked in vivo inhibitory effect; also recorded: highly active
mechanism of action (point of enzymatic inhibition) [4]: appear to inhibit TS

The next lines start with the values.

IC50 (CCRF-CEM [1]): 0.008 µg/mL (≈ 0.018 µM)
SMILES: Nc1nc(O)c2c(CCc3ccc(C(=O)N[C@@H](CCC(=O)O)C(=O)O)c(F)c3)c[nH]c2n1

IC50 (CCRF-CEM [1]): 0.019 µg/mL (≈ 0.0427 µM)
SMILES: Nc1nc(O)c2c(CCc3ccc(C(=O)N[C@@H](CCC(=O)O)C(=O)O)cc3F)c[nH]c2n1

IC50 (CCRF-CEM [1]): 0.0084 µg/mL (≈ 0.0197 µM)
SMILES: Cc1nc(O)c2c(CCc3ccc(C(=O)N[C@@H](CCC(=O)O)C(=O)O)cc3)c[nH]c2n1 [N-{4-[2-(4-hydroxy-6-methylpyrrolo[2,3-d]pyrimidin-3-yl)ethyl]-benzoyl}-L-glutamic acid]

IC50 (CCRF-CEM [1]): 1.2 µg/mL (≈ 2.91 µM)
SMILES: O=C(O)CC[C@H](NC(=O)c1ccc(CCc2c[nH]c3ncnc(O)c23)cc1)C(=O)O [N-{4-[2-(4-hydroxypyrrolo[2,3-d]pyrimidin-3-yl)ethyl]benzoyl}-L-glutamic acid]

IC50 (CCRF-CEM [1]): 0.025 µg/mL (≈ 0.0577 µM)
SMILES: Nc1nc(O)c2c(CCc3ccc(C(=O)N[C@@H](CCC(=O)O)C(=O)O)s3)c[nH]c2n1 [N-{5-[2-(4-hydroxy-6-aminopyrrolo[2,3-d]-pyrimidin-3-yl)ethyl]thien-2-ylcarbonyl}-L-glutamic acid]
